From US20130053430A1, “MODULATION OF CETP EXPRESSION” (Isis Pharmaceuticals, Inc., priority 2010, published 2013)
e = 2'-O-(2-methoxyethyl) (MOE); d = 2'-deoxy (DNA)

Tests used:
[1] = test system: CETP mRNA; assay: Liver CETP mRNA in huCETP transgenic mice on Western diet (Example 8); format: in vivo, human; conditions: 25 mg/kg s.c. twice per week for 2 weeks, relative to PBS control
Procedure: Male transgenic mice were maintained on a 12-hour light/dark cycle and were fed ad libitum the Western diet (TD88137; 42% cal from fat, 0.2% cholesterol; Harlan Laboratories, Indianapolis, Ind.). Animals were acclimated for at least 7 days in the research facility before initiation of the experiment and were maintained on this diet throughout the study period. Antisense oligonucleotides (ASOs) were prepared in phosphate buffered saline (PBS) and sterilized by filtering through a 0.2 micron filter. Oligonucleotides were dissolved in 0.9% PBS for injection.
(§1) The mice were divided into two groups of 4-6 mice each.
Twenty four hours after the final dose, the animals were sacrificed and liver tissue was isolated.
Liver RNA was isolated for real-time PCR analysis of CETP. The primer probe set hCETP was used to measure CETP levels. […] The RNA expression levels were normalized to murine Cyclophilin. The results are expressed as percent inhibition of CETP mRNA, relative to the PBS control.

[2] = test system: CETP protein; assay: Plasma CETP protein by ELISA (Example 8); format: in vivo, human; conditions: huCETP transgenic mice, Western diet; 25 mg/kg s.c. twice per week for 2 weeks; relative to PBS control
Procedure: as §1
Plasma CETP protein levels were measured by ELISA (Alpco). […] The results are expressed as percent inhibition of CETP protein, relative to the PBS control.

“ISIS 349517: 5-10-5 MOE gapmer CAGCACTTTAATGCCAGTGG (sugars from the 5' end e5 d10 e5, backbone and methylation of C not given here)” was tested. Which “Percent inhibition of liver CETP mRNA expression” value [1] did it give?
Its value is 84%.

And the “Percent inhibition of plasma CETP protein levels” value [2]?
Its value is 96%.
